From patent publication US5536848A, “Bioactive acetogenins and derivatives” (Purdue Research Foundation, priority 1994, dated 1996)
Values after ≈ are worked out from the molar mass of the structure shown. Where two headings read alike, the source gives them in different places.

Columns and labels:
[1] = tested on: HT-29 (human colon adenocarcinoma); assay: Seven-day in vitro cytotoxicity, HT-29; assay type: cell-based; settings: for IC50: HT-29, 168 h
Description: (§1) The brine shrimp (Artemia salina Leach) test (BST) was performed as modified to determine LC50 values in μg/ml. Seven-day in vitro cytotoxicity tests against human tumor cell lines were carried out at the Purdue Cancer Center, using standard protocols for A-549 (human lung carcinoma), MCF-7 (human breast carcinoma) and HT-29 (human colon carcinoma) with adriamycin as a positive control. The reported ED50 values in μg/ml (Table 5) were tabulated from the same run in order to facilitate comparison for the SAR's.
(§2) Bioassays. The brine shrimp (Artemia salina Leach) test (BST) was performed as modified. Zhao et al., Phytochemistry, 33, p. 1065 (1993). Seven-day in vitro cytotoxicity tests against human tumor cell lines were carried out at the Purdue Cancer Center, using standard protocols for A-549 (human lung carcinoma), Gu, Z. M.; Fang, X.-P.; Miesbauer, L. R., Smith, D. L.; and McLaughlin, J. L., 30, 31, and 32-Hydroxybullatacinones: Bioactive Terminally-Hydroxylated Annonaceous Acetogenins from Annona bullata., J. Nat. Prod., 1993, 56, 870-876; MCF-7 (human breast carcinoma) McLaughlin, J. L., Chang, C.-J., and Smith, D. L., Simple Bench-Top Bioassays (Brine Shrimp and Potato Discs) for the Discoveries of Plant Antitumor Compounds: A Review of Recent Progress. In Kinghorn, A. D., Balandrin, J. (Eds): "Human Medicinal Agents from Plants", ACS Symposium Series, Washington, D.C., American Chemical Society, 1993, pp. 112-137; and HT-29 (human colon carcinoma), Mclaughlin, J.L., Chang, C.-J., Smith, D.L., "'Bench-Top' Bioassays for the Discovery of Bioactive Natural Products: An Update", in Rahman, Atta-ur- (Ed): "Studies in Natural Product Chemistry", Vol. 9, Amsterdam, Elsevier, 1991, pp. 383-409, with adriamycin as a positive control. The reported values (Table IV) were tabulated from the same run in order to facilitate comparison for the SAR's.
(§3) Bioassay. The extracts, fractions, and isolates were routinely evaluated for lethality to brine shrimp larvae (BST). Cytotoxicities against human solid tumor cells were measured at the Purdue Cell Culture Laboratory, Purdue Cancer Center, for the A-549 lung carcinoma, MCF-7 breast carcinoma, and HT-29 colon adenocarcinoma.
(§4) The brine shrimp lethality test (BST), on newly hatched naupleii, was performed in our laboratory as previously described. McLaughlin, Methods in Plant Biochemistry, Vol. 6, Hostettmann, Academic Press, London, pp. 1-33 (1991). Seven day cytotoxicities against human solid tumor cells were measured at the Cell Culture Laboratory, Purdue Cancer Center, for the A-549 lung carcinoma, MCF-7 breast carcinoma, and HT-29 colon adenocarcinoma. The respiratory functions of rat liver mitochondria (RMB) were measured polarographically by determination of their rates of oxygen consumption after the addition of acetogenins or their derivatives.

[2] = tested on: A-549 (human lung carcinoma); assay: Seven-day in vitro cytotoxicity, A-549; assay type: cell-based; settings: for IC50: A549, 168 h
Description: as §1, §2, §3, §4

[3] = tested on: HT-29 (human colon adenocarcinoma); assay: Seven-day in vitro cytotoxicity, HT-29; assay type: cell-based; settings: HT-29, 168 h, read-out: HT-29 LC50, Table 5, same run
[4] = tested on: brine shrimp (Artemia salina Leach); assay: Brine shrimp lethality test (BST); assay type: in vivo; settings: Artemia salina, read-out: BST LC50
Description: as §1, §2, §3, §4

[5] = tested on: MCF-7 (human breast carcinoma); assay: Seven-day in vitro cytotoxicity, MCF-7; assay type: cell-based; settings: for IC50: MCF7, 168 h
Description: as §1, §2, §3, §4

[6] = tested on: A2780 human ovarian cancer xenografts; settings: 50 μg/kg; athymic mice bearing A2780 human ovarian cancer xenografts; cited from earlier work
rat liver mitochondria = assay: Rat mitochondrial bioassay (RMB), inhibition of oxygen uptake; assay type: biochemical; settings: for mitochondrial inhibition: rat liver mitochondria, result in words; for RMB IC50: Table 17, oxygen consumption of rat liver mitochondria, parent and acetal derivative in the same run
Description: as §4
The oxidative phosphorylation pathway (or electron transport chain) is responsible for oxidizing NADH to NAD^+ and producing ATP from ADP and phosphate within the mitochondria. There are five enzyme complexes in this pathway: NADH-ubiquinone reductase (complex I), succinate-ubiquinone reductase (complex II), ubiquinone-cytochrome c reductase (complex III), cytochrome c oxidase (complex IV) and the F0 F1 -ATPase complex (complex V). The end point of the oxidative phosphorylation pathway is the reduction of oxygen (O2) to water in the mitochondria (thus, it is also called respiration), coupled with the synthesis of ATP by complex V. State 4 respiration is the oxidation of substrates in the absence of a phosphate acceptor (e.g., ADP). State 3 respiration occurs when a phosphate acceptor is present and oxygen utilization increases. The ratio of State 3 respiration to State 4 respiration is the respiratory control ratio (RCR).
The process of respiration can be measured by using an oxygen electrode to detect the amount of oxygen present in the assay cell. If respiration is occurring normally, the concentration of oxygen should slowly decrease as it is reduced to water. However, if there is some type of inhibition of oxidative phosphorylation occurring, the oxygen level will no longer decrease at the same rate. This rate of oxygen usage can be visualized by a chart recorder connected to the oxygen electrode. At normal respiration,a decreasing baseline slope will be established. During inhibition, however, the baseline slope should decrease (i.e., the slope will move closer to zero), since the oxygen present is no longer being reduced. In other words, the oxygen concentration in the assay cell is no longer decreasing at the same rate as in normal respiration. Furthermore, inhibition sites at specific complexes can be determined by competitive inhibition studies. This is accomplished by addition of a known inhibitor of, e.g., complex I, followed by the new respiration-inhibiting compound. […] This can be verified by trying inhibitors at other sites and by reversing the order, i.e., adding the new compound and then the known inhibitor.
The method for isolating rat liver mitochondria essentially followed the published methodology. Ahammadsahib et al., Life Sciences, 53, pgs. 1113-1120 (1993). The isolation buffer used for the isolation of mitochondria from rat liver consisted of 4 mM Tris-HC1, 0.5 mM EDTA, and 250 mM sucrose at a pH of 7.4. The isolation buffer was kept at refrigeration temperature at all times by storing on ice during the whole procedure. The rats were supplied by Sprague-Dawley, were male, and weighed approximately 300-320 grams. They were sacrificed with carbon dioxide, and the livers were removed and immediately placed in the isolation buffer on ice. The livers were then rinsed with several washings of cold buffer, cut into pieces, and homogenized. The homogenates were then centrifuged (Sorvall Superspeed RC2-B, 4° C) for 10 minutes at approximately 2000 rpms; the supernatant was next centrifuged for 20 minutes at approximately 9000 rpms. The pellet was reserved and resuspended in 2 ml of assay buffer with a glass pipet. The assay buffer consisted of 100 mM KC1, 5 mM KH2 PO4, 1 mM EDTA, 5 mM glutamate, 1 mM malate, and 20 mM Tris-HCl at a pH of 7.4 and was stored at room temperature. […]

[7] = read-out: HT-29 ED50, Table 17, seven day cytotoxicity, same run
[8] = read-out: MCF-7 ED50, Table 17, seven day cytotoxicity, same run
[9] = read-out: MCF-7 LC50, Table 5, seven-day cytotoxicity, same run
[10] = Table 17, seven day cytotoxicity, same run, read-out: HT-29 ED50
[11] = Table 17, seven day cytotoxicity, same run, read-out: A-549 ED50
[12] = Table 17, seven day cytotoxicity, same run, read-out: MCF-7 ED50

Structure (SMILES)	IC50 ([2]; read-out: A-549 ED50) [ng/mL]	LC50 ([4]; Table 17, same run) [ng/mL]	IC50 [5, 8] [ng/mL]	IC50 [1, 10] [ng/mL]	IC50 [2, 11] [ng/mL]	IC50 [5, 12] [ng/mL]	RMB IC50 (rat liver mitochondria) [n moles/Lt/mg protein]	further results
COc1cccc2c1C(=O)c1c(O)c3c(c(O)c1C2=O)C[C@@](O)(C(=O)CO)C[C@@H]3O[C@H]1C[C@H](N)[C@H](O)[C@H](C)O1 [Adriamycin, adriamycin, reference compound]	4.19 (≈ 7.71 nM)	80 (≈ 147 nM)	401 (≈ 738 nM)	–	–	–	–	IC50 [1, 7]: 35.5 ng/mL (≈ 65.3 nM); IC50 ([1]; read-out: HT-29 LC50, Table 12, same run): 39.2 ng/mL (≈ 72.1 nM); EC50 ([1]; HT-29, read-out: HT-29): 37.2 ng/mL (≈ 68.4 nM); IC50 ([2]; read-out: A-549 LC50): 0.104 ng/mL (≈ 0.191 nM); EC50 ([2]; A549, read-out: A-549): 8.5 ng/mL (≈ 15.6 nM); IC50 [3]: 0.153 ng/mL (≈ 0.281 nM); LC50 ([4]; Table 5, brine shrimp larvae): 257 ng/mL (≈ 473 nM); LC50 ([4]; Table 12): 80 ng/mL (≈ 147 nM); IC50 [5, 9]: 17.6 ng/mL (≈ 32.4 nM); IC50 ([5]; read-out: MCF-7 LC50, Table 12, same run): 231 ng/mL (≈ 425 nM); EC50 ([5]; MCF7, read-out: MCF-7): 519 ng/mL (≈ 955 nM)
CCCCCCCCCC[C@H](O)[C@H]1CC[C@H]([C@H]2CC[C@H]([C@H](O)CCCCCCCCCC[C@@H](O)CC3=C[C@H](C)OC3=O)O2)O1 [Bullatacin, reference compound]	–	–	–	–	–	–	–	tumor growth inhibition (TGI) [6]: 67%; mitochondrial inhibition (rat liver mitochondria): high activity
CCCCCCCCCCC(O)C1CCC(C2CCC(C(O)CCCCC(O)CCCCCCCC3=CC(C)OC3=O)O2)O1 (stereo not drawn) [Compound 1, Bullatin]	–	–	–	–	–	–	–	IC50 ([2]; read-out: A-549 LC50): 0.00939 ng/mL (≈ 0.0151 nM); IC50 [3]: 0.00378 ng/mL (≈ 0.00607 nM); LC50 ([4]; Table 5, brine shrimp larvae): 4 ng/mL (≈ 6.42 nM); IC50 [5, 9]: 0.00833 ng/mL (≈ 0.0134 nM); mitochondrial inhibition (rat liver mitochondria): high activity
CCCCCCCCCCCCCC[C@@H](O)[C@H]1CC[C@H]([C@H]2CC[C@@H](CCCCC[C@@H](O)CC3=C[C@H](C)OC3=O)OCO2)O1 [Compound 9, 10,13-Formaldehyde acetal derivative of goniothalamicin]	–	53.8 (≈ 88.4 nM)	–	0.0219 (≈ 0.036 nM)	1050 (≈ 1720 nM)	0.409 (≈ 0.672 nM)	203.1	–
CCCCCCCCCCCCCC[C@H]1OCO[C@@H]1CC[C@H](O)[C@@H]1CC[C@@H](CCCCC[C@@H](O)CC2=C[C@H](C)OC2=O)O1 [Compound 12, 17,18-formaldehyde acetal derivative]	–	7.5 (≈ 12.3 nM)	–	–	69.5 (≈ 114 nM)	268 (≈ 440 nM)	290.3	–
CCCCCC[C@H]1CCC[C@@H]([C@H]2CC[C@H]([C@H]3CC[C@@H]([C@@H]4CC[C@@H](CCCCCCCCCC5=C[C@H](C)OC5=O)O4)OCO3)O2)OCO1 [Compound 14, 16,19- and 24,28-bis-formaldehyde acetal derivative]	–	10200 (≈ 15400 nM)	–	0.000289 (≈ 0.000436 nM)	1780 (≈ 2680 nM)	1 (≈ 1.51 nM)	–	–
CCCCCCCCCC[C@H](O)[C@H]1CC[C@H]([C@H](O)CC[C@H](O)[C@@H]2CC[C@@H](CCCCCCC[C@@H](O)CC3=C[C@H](C)OC3=O)O2)O1 [Compound 18, Bullatalicin, reference compound]	–	1200 (≈ 1880 nM)	–	6.48e-05 (≈ 0.000101 nM)	–	262 (≈ 410 nM)	19.2	–
CCCCCCCCCC[C@@H](O)[C@H]1CC[C@H]([C@H](O)CC[C@H](O)[C@@H]2CC[C@@H](CCCCCCC[C@@H]3CC(CC(C)=O)C(=O)O3)O2)O1 (stereo partly drawn) [Compound 24, (2,4-Cis and trans)bullatanocinones, reference compound]	0.643 (≈ 1.01 nM)	280 (≈ 438 nM)	293 (≈ 459 nM)	–	–	–	61.1	IC50 [1, 7]: 2.34e-05 ng/mL (≈ 3.66e-05 nM)
CCCCCCCCCC[C@@H](O)[C@H]1CC[C@H]([C@H]2CC[C@@H]([C@@H]3CC[C@@H](CCCCCCC[C@@H]4CC(CC(C)=O)C(=O)O4)O3)OCO2)O1 (stereo partly drawn) [Compound 25, 16,19-Formaldehyde acetal derivatives of (2,4-cis and trans)-bullatanocinones]	–	15 (≈ 23 nM)	–	–	0.0677 (≈ 0.104 nM)	1280 (≈ 1970 nM)	28.3	–
CCCCCCCCCC[C@H](O)[C@H]1CC[C@H]([C@H](O)CC[C@H](O)[C@@H]2CC[C@@H](CCCCCCC[C@@H]3CC(CC(C)=O)C(=O)O3)O2)O1 (stereo partly drawn) [Compound 26, (2,4-Cis and trans)-bullatalicinones, reference compound]	0.0562 (≈ 0.088 nM)	470 (≈ 736 nM)	1.57 (≈ 2.46 nM)	–	–	–	23.0	–
